According to ChEMBL document CHEMBL5696442, “Discovery of type II inhibitors of TGFβ-activated kinase 1 (TAK1) and mitogen-activated protein kinase kinase kinase kinase 2 (MAP4K2)” (J Med Chem, 2015):
Activity calls are given as the source filed them. No cut-off for these calls is given here.

Tests used:
[1] = target: Calcium/calmodulin-dependent protein kinase type II subunit delta (Homo sapiens) (UniProt Q13557); test: Inhibition of CaMK2d Lys1 labeling site harbouring IPTGQEYAAKIINTKK in human Huh-7 cell lysate at 1 uM by KiNativ Profiling analysis relative to control; type: subcellular
[2] = target: T1, Inhibitor of nuclear factor kappa-B kinase subunit beta (Homo sapiens) (UniProt O14920); test: Inhibition of IKKb Lys2 labeling site in human Huh-7 cell lysate at 1 uM by KiNativ Profiling analysis relative to control; type: subcellular
T1 sequence (whole entry): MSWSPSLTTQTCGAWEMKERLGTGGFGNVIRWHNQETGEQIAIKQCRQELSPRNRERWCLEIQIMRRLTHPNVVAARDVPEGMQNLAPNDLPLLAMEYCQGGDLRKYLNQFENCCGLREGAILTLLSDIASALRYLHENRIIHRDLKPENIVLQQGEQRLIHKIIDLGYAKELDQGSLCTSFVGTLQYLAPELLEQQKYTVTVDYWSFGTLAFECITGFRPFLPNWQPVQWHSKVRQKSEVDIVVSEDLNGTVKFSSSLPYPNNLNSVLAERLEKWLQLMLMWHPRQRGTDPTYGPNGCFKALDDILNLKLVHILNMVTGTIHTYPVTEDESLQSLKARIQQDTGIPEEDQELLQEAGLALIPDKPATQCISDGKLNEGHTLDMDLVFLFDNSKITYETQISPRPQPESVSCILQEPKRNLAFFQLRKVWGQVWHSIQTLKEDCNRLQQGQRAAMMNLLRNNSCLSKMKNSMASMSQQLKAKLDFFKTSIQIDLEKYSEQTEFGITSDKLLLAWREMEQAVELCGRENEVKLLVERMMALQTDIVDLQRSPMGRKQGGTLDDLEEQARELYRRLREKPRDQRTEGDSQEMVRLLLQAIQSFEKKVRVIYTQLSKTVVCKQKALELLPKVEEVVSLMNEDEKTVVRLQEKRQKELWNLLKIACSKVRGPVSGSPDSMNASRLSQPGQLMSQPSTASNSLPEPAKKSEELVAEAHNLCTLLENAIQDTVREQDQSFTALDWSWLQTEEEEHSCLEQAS

[3] = target: Ribosomal protein S6 kinase alpha-1 (Homo sapiens) (UniProt Q15418); test: Inhibition of RSK1 domain2 ACT labeling site in human Huh-7 cell lysate at 1 uM by KiNativ Profiling analysis relative to control; type: subcellular
[4] = target: Cyclin-dependent kinase 12 (Homo sapiens) (UniProt Q9NYV4); test: Inhibition of CRK7 Lys2 labeling site in human Huh-7 cells at 1 uM by KiNativ Profiling analysis relative to control; type: cell-based
[5] = tested on: Tyrosine-protein kinase ABL1 (Homo sapiens), P00519 [Y253F]; test: Inhibition of ABL1 Y253F mutant (unknown origin) at 10 uM by Ambit Kinomescan binding assay relative to control
[6] = target: Serine/threonine-protein kinase DCLK3 (Homo sapiens) (UniProt Q9C098); test: Inhibition of DCAMKL3 (unknown origin) at 10 uM by Ambit Kinomescan binding assay
[7] = target: 3-phosphoinositide-dependent protein kinase 1 (Homo sapiens) (UniProt O15530); test: Inhibition of PDPK1 (unknown origin) at 10 uM by Ambit Kinomescan binding assay
[8] = target: Phosphatidylinositol 4-phosphate 3-kinase C2 domain-containing subunit beta (Homo sapiens) (UniProt O00750); test: Inhibition of PIK3C2B (unknown origin) at 10 uM by Ambit Kinomescan binding assay
[9] = target: Casein kinase I isoform delta (Homo sapiens) (UniProt P48730); test: Inhibition of CK1delta Lys2 labeling site in human A-375 cells at 0.5 uM by KiNativ Profiling analysis relative to control; type: cell-based
[10] = target: Mitogen-activated protein kinase 7 (Homo sapiens) (UniProt Q13164); test: Inhibition of Erk5 Lys2 labeling site in human A-375 cells at 0.05 uM by KiNativ Profiling analysis relative to control; type: cell-based
[11] = target: Tyrosine-protein kinase Yes (Homo sapiens) (UniProt P07947); test: Inhibition of YES ACT labeling site in human Huh-7 cells at 10 uM by KiNativ Profiling analysis relative to control; type: cell-based
[12] = target: Cyclin-dependent kinase 11A (Homo sapiens) (UniProt Q9UQ88); test: Inhibition of CDC2L2 (unknown origin) at 10 uM by Ambit Kinomescan binding assay relative to control; values are per cent of control
[13] = tested on: BaF3; test: Antiproliferative activity against parental mouse BaF3 cells assessed reduction in cell viability measured after 48 hrs by Celltiter-glo assay; type: functional, cell-based; conditions: BaF3, 48 h
[14] = target: Tyrosine-protein kinase JAK2 (Homo sapiens) (UniProt O60674); test: Inhibition of JAK2 JH1catalytic domain (unknown origin) at 1 uM by Ambit Kinomescan binding assay relative to control
[15] = target: T2, Serine/threonine-protein kinase STK11 (Homo sapiens) (UniProt Q15831); test: Inhibition of LKB1 Lys2 labeling site in human A-375 cells at 5 uM by KiNativ Profiling analysis relative to control; type: cell-based
T2 sequence (whole entry): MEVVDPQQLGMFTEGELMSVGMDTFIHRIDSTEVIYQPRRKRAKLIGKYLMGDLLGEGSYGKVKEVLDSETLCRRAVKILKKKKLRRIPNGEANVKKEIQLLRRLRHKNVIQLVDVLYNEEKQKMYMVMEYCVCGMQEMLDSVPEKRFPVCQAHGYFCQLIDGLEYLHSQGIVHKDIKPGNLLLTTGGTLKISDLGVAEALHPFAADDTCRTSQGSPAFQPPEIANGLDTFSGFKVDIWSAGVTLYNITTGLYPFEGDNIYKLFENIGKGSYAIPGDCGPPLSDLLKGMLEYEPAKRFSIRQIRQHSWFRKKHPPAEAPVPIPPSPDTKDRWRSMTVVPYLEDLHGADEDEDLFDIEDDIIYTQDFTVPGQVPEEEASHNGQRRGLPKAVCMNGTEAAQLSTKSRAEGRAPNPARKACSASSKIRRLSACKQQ

[16] = target: Tyrosine-protein kinase Fyn (Homo sapiens) (UniProt P06241); test: Inhibition of FYN ACT labeling site in human A-375 cells at 0.05 uM by KiNativ Profiling analysis relative to control; type: cell-based
[17] = target: Serine/threonine-protein kinase 4 (Homo sapiens) (UniProt Q13043); test: Inhibition of MST1 (unknown origin) at 1 uM by Ambit Kinomescan binding assay relative to control
[18] = tested on: Receptor-type tyrosine-protein kinase FLT3 (Homo sapiens), P36888 [D835H]; test: Inhibition of FLT3 D835H mutant (unknown origin) at 1 uM by Ambit Kinomescan binding assay relative to control; values are per cent of control

Phosphatidylinositol 4-phosphate 3-kinase C2 domain-containing subunit beta (Homo sapiens), sequence (O00750 whole entry, the tested form may be a part, canonical isoform): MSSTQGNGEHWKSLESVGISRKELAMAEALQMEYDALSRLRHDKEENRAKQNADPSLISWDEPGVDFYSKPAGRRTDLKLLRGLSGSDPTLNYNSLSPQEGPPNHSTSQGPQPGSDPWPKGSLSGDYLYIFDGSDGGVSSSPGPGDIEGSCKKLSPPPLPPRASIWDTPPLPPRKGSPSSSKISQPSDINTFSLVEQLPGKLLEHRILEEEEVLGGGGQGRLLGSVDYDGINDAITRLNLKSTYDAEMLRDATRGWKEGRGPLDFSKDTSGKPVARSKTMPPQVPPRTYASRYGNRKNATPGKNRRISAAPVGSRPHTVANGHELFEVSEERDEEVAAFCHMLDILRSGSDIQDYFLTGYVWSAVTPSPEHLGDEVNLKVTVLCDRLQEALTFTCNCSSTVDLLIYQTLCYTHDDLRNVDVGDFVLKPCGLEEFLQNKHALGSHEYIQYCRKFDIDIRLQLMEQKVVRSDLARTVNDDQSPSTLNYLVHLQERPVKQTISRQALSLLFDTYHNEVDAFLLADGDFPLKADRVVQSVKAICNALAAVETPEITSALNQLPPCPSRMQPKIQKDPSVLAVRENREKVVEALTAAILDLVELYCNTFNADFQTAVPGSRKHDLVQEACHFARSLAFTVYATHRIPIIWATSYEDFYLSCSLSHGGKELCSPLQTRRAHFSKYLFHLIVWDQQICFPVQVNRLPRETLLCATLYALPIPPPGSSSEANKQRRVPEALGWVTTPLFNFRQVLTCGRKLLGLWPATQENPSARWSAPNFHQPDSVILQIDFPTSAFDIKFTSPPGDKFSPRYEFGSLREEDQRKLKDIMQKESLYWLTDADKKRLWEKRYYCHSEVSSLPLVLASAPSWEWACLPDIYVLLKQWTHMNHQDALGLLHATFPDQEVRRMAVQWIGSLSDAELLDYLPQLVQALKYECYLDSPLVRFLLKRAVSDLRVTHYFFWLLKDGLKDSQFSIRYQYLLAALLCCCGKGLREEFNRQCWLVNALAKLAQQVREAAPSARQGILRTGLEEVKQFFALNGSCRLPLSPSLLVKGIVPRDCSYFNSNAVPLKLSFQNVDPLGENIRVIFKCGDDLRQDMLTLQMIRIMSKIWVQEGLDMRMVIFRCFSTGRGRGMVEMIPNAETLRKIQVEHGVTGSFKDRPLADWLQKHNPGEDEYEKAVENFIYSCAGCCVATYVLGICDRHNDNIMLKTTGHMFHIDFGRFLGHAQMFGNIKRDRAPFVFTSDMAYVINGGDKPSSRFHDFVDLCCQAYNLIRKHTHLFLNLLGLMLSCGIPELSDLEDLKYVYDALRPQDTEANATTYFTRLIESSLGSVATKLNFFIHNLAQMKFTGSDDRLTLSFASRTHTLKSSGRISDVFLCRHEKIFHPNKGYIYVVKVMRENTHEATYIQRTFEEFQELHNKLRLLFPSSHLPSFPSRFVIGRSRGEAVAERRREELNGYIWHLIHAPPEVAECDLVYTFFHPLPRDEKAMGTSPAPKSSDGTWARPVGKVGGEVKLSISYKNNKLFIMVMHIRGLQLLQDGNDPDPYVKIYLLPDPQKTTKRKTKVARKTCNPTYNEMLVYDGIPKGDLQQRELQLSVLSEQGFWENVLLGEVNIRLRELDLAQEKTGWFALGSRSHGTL
Casein kinase I isoform delta (Homo sapiens), sequence (P48730 whole entry, looked up, canonical isoform): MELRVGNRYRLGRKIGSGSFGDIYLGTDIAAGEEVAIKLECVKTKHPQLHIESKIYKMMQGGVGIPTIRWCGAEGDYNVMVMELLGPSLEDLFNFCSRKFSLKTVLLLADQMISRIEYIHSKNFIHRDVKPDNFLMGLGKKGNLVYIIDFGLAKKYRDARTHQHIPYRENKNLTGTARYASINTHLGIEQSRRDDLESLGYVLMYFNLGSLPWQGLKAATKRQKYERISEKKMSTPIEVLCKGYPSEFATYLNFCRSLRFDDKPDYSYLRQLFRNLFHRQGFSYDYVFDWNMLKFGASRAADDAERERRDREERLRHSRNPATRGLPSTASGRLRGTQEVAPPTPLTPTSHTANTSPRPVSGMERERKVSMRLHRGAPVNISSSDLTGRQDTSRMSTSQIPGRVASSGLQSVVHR
Calcium/calmodulin-dependent protein kinase type II subunit delta (Homo sapiens), sequence (Q13557 whole entry): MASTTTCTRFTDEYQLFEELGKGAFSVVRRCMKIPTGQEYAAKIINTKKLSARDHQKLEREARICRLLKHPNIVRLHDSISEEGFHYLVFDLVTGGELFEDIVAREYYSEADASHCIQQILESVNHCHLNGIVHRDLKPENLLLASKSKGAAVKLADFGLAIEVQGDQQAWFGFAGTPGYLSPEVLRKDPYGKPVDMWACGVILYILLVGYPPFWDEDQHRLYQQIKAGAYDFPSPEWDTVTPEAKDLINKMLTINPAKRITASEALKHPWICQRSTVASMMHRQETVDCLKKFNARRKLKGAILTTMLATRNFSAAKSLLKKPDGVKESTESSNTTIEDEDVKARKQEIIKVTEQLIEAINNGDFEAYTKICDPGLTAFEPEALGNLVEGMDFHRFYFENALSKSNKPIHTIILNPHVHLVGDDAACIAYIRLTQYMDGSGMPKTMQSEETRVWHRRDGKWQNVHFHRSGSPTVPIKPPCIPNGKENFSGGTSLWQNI
Mitogen-activated protein kinase 7 (Homo sapiens), sequence (Q13164 2-816 limits assumed): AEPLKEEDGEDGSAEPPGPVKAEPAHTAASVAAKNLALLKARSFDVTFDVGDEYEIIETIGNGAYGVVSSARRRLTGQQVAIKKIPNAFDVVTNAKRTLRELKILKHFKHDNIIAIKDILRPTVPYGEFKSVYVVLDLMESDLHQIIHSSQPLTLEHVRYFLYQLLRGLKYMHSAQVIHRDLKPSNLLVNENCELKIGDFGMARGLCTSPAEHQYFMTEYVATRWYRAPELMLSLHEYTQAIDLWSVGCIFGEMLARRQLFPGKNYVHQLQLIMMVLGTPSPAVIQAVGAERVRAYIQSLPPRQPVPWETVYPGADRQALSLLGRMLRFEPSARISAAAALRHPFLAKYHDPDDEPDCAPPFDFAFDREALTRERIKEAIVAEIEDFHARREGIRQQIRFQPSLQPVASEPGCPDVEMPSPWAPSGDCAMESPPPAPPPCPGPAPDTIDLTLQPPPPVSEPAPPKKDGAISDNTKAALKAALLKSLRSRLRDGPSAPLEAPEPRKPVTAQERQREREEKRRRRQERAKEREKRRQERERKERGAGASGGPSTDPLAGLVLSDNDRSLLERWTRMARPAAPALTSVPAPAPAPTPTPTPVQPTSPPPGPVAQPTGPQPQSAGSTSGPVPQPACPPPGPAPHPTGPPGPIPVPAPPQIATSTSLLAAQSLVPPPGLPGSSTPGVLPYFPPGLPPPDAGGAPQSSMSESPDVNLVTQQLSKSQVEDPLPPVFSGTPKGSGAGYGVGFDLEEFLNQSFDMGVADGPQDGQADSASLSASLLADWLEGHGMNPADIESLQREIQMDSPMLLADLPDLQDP
Cyclin-dependent kinase 11A (Homo sapiens), sequence (Q9UQ88 whole entry): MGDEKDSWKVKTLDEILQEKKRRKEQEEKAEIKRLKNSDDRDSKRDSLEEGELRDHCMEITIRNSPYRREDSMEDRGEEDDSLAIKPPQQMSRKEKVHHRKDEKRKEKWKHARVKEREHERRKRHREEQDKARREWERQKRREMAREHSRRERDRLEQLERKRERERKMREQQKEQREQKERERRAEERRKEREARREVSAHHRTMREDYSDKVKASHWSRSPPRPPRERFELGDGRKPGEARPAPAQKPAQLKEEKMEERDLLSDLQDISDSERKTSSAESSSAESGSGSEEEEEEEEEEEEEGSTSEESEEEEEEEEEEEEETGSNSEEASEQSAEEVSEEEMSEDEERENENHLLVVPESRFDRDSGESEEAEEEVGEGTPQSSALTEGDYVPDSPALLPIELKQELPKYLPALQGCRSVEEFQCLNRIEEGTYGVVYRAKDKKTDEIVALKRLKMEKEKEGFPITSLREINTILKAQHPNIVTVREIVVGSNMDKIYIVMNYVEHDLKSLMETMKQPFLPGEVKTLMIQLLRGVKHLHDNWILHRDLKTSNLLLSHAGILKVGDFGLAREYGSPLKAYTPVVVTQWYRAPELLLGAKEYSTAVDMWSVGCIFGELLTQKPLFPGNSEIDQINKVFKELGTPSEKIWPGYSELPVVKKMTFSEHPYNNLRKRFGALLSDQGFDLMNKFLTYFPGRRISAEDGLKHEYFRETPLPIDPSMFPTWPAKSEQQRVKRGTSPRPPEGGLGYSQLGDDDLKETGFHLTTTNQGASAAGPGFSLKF
Serine/threonine-protein kinase DCLK3 (Homo sapiens), sequence (Q9C098 whole entry): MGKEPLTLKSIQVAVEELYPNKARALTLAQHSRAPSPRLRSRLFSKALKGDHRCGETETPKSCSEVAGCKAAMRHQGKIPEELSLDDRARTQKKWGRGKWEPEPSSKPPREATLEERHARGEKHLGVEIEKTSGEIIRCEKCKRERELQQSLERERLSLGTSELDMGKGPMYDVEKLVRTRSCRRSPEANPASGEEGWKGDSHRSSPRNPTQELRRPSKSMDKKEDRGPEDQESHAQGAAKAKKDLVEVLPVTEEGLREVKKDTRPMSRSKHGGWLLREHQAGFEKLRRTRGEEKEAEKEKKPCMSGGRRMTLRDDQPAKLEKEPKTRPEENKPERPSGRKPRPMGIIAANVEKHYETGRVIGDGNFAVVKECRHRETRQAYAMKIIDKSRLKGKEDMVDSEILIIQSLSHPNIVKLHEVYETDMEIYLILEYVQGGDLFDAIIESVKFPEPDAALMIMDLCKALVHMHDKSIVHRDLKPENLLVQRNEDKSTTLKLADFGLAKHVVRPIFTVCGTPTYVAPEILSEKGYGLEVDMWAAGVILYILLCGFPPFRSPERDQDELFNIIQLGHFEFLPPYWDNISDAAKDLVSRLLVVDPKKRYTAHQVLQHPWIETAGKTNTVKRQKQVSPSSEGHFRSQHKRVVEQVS

For `CNc1cc(Oc2cc(C(=O)Nc3cc(N4CCN(C)CC4)cc(C(F)(F)F)c3)ccc2C)ncn1`, the inhibition [1] was 15.4%, the inhibition [2] was -5.1% and the inhibition [3] was 1.9%. For the same compound, the inhibition [4] was 40.3%.
In the case of `CCN1CCN(Cc2ccc(NC(=O)c3ccc(C)c(Oc4ccnc5[nH]ccc45)c3)cc2C(F)(F)F)CC1`, the inhibition [5] is reported as 1.1%, the inhibition [6] is reported as “inactive” and the inhibition [7] is reported as “inactive”. The inhibition [8] was “inactive”, the inhibition [9] was 3.3% and the inhibition [10] was 5.3%. The inhibition [11] was 25.2% and the percent of control [12] was 0.05%.
Work on `CCN1CCN(Cc2ccc(NC(=O)c3ccc(C)c(/C=C/c4cnc5[nH]ccc5c4OC)c3)cc2C(F)(F)F)CC1` yielded an IC50 [13] of 4.02 µM, an inhibition [14] of 32% and an inhibition [15] of 28.7%. For the same compound, the inhibition [16] was 38.9%, the inhibition [17] was 72% and the residual activity [18] was 2.6%.
